Data taken from US20120009280A1, “METHOD OF REDUCING THE RATE OF DEGRADATION OF A BIOLOGICAL MATERIAL” (Bio-Energy Ingredients Limited, priority 2009, published 2012).

Assays:
[1] = test system: total micro-organism; test: Total microbial (plate) count of spent brewer's / wet distiller's grains stored at ambient temperature; assay type: cell-based; set-up: total microbial count: unit: cfu/gram; settings: for preservation effect period: Example 18; for total microbial count: powder 10% (w/w); for preservation time with total microbial counts <10 cfu/g / preservation time with total microbial counts <100 cfu/g / preservation time with total microbial counts <1000 cfu/g: distiller's grains not de-watered, Examples 16-18
Source text: Samples of spent brewer's grains were drawn from the discharge line of a brewery in South Africa. The samples, packed in dry ice in a cold box, were transported over a distance of approximately 40 kilometres to a laboratory. At the laboratory, the samples were thoroughly mixed and initially split into a first portion (Portion 1) and a second portion (Portion 2). The second portion was about twice the size of the first. Portion 1 was left untreated. Material produced from Portion 1 and Portion 2 is designated below using the code “AR” (as received).
Portion 2 was placed on a clean, standard, laboratory screen deck with 1.4 mm apertures supported from below. As much water as possible was manually squeezed out with a clean flat plastic disc and the sample was then manually remixed after the squeezing. The squeezed material was then split into a third portion (Portion 3) and a fourth portion (Portion 4) of approximately the same size. Material produced from Portion 3 and Portion 4 is designated below using the code “SO” (squeezed).
Portion 4 was added to a high speed kitchen food-shredder and shredded for about two minutes. The shredded material was then returned to the 1.4 mm aperture screen and squeezed again, as described above, and manually remixed again after the second squeezing to produce a shredded and squeezed portion (Portion 5). Material produced from Portion 5 is designated below using the code “SH” (shredded).
Samples of Portion 1 (“AR”), Portion 3 (“SO”) and Portion 5 (“SH”) were then delivered to a microbiological testing facility about 15 kilometres from the treatment laboratory. Each was tested for initial total microbial, yeast and mould counts, respectively.
Separate untreated samples were similarly stored under insect-proof screens at ambient temperature for seven days (as shown in Tables 1 and 2). During the trial period the ambient temperature ranged from 11 to 33 degrees C.
After exposure to the environment for seven days, all of the samples were tested at a South African National Accreditation System (SANAS) approved microbiological testing facility. Each was tested for total micro-organism, yeast and mould counts to determine the affect of the various treatments.
Samples of spent brewer's grains were drawn from the discharge line of a brewery in South Africa.
At the laboratory, the samples were thoroughly mixed and initially split into a first portion (Portion 1) and a second portion (Portion 2). Portion 1 was left untreated. A sample of Portion 1, was delivered immediately to a microbiological testing facility about 15 kilometres away from the treatment laboratory and was tested for initial total microbial, yeast and mould counts, respectively.
Samples from Portion 2 were subjected to treatment with varying amounts of a powdered, commercially-available calcium oxide containing approximately 94% calcium oxide (CaO) as shown in Table 32. The treatments varied from 2.5 to 10% (w/w) calcium oxide addition. The samples were stored in batches (according to the calcium oxide treatment) under insect-proof screens at ambient temperature for fifty six days. […] During the trial period the ambient temperature ranged from 10 to 30 degrees C. As this period was the southern hemisphere spring/early summer, the humidity as well as ambient temperatures varied widely.
Samples from each treatment were drawn every seven days. No further calcium oxide treatment or agitation took place after the initial mix. In each case the entire sample was isolated and delivered to the microbiological testing facility.
(§1) In this trial the same source of wet distiller's grains (again with now partial water removal prior to treatment) was treated.
as §1

[2] = test system: yeast; test: Yeast count of spent brewer's / wet distiller's grains stored at ambient temperature; assay type: cell-based
[3] = 10% Ca-DGO (w/w) granules, week 1
[4] = 10% Ca-DGO (w/w) granules, week 2
[5] = 10% Ca-DGO (w/w) granules, week 3
[6] = 10% Ca-DGO (w/w) granules, week 4
[7] = 10% Ca-DGO (w/w) granules, week 5
[8] = 10% Ca-DGO (w/w) powder, week 1
[9] = 10% Ca-DGO (w/w) powder, week 2
[10] = 10% Ca-DGO (w/w) powder, week 3
[11] = 10% Ca-DGO (w/w) powder, week 4
[12] = 10% Ca-DGO (w/w) powder, week 5
[13] = 20% Ca-DGO (w/w) powder, week 1
[14] = 20% Ca-DGO (w/w) powder, week 2
[15] = 20% Ca-DGO (w/w) powder, week 3
[16] = 20% Ca-DGO (w/w) powder, week 4
[17] = 20% Ca-DGO (w/w) powder, week 5
[18] = 40% Ca-DGO (w/w) powder, week 1
[19] = 40% Ca-DGO (w/w) powder, week 2
[20] = 40% Ca-DGO (w/w) powder, week 3
[21] = 40% Ca-DGO (w/w) powder, week 4
[22] = 40% Ca-DGO (w/w) powder, week 5

Structure (SMILES): [Ca+2].[O-]CC(O)CO.[O-]CC(O)CO [calcium diglyceroxide]
- Total plate count [1, 3]: 11000 cfu/gram
- Total plate count [1, 4]: <10 cfu/gram
- Total plate count [1, 5]: 540 cfu/gram
- Total plate count [1, 6]: 60 cfu/gram
- Total plate count [1, 7]: 650 cfu/gram
- Total plate count [1, 8]: 610 cfu/gram
- Total plate count [1, 9]: <10 cfu/gram
- Total plate count [1, 10]: 580 cfu/gram
- Total plate count [1, 11]: 5000 cfu/gram
- Total plate count [1, 12]: 36000 cfu/gram
- Total plate count [1, 13]: 80 cfu/gram
- Total plate count [1, 14]: 310 cfu/gram
- Total plate count [1, 15]: 140 cfu/gram
- Total plate count [1, 16]: 40 cfu/gram
- Total plate count [1, 17]: 10 cfu/gram
- Total plate count [1, 18]: 40 cfu/gram
- Total plate count [1, 19]: 450 cfu/gram
- Total plate count [1, 20]: 103 cfu/gram
- Total plate count [1, 21]: 10 cfu/gram
- Total plate count [1, 22]: 10 cfu/gram
- preservation effect period ([1]; granule form 15% (w/w)): 9 week
- total microbial count ([1]; 3 week time point): 580
- total microbial count ([1]; week 4): 5,000
- total microbial count ([1]; week 5): 36,000
- preservation effect period ([1]; powder form 15% (w/w)): 9 week
- Yeast Count [2, 3]: 480 cfu/gram
- Yeast Count [2, 4]: <10 cfu/gram
- Yeast Count [2, 5]: <10 cfu/gram
- Yeast Count [2, 6]: <19 cfu/gram
- Yeast Count [2, 7]: <10 cfu/gram
- Yeast Count [2, 8]: <10 cfu/gram
- Yeast Count [2, 9]: <10 cfu/gram
- Yeast Count [2, 10]: <10 cfu/gram
- Yeast Count [2, 11]: <10 cfu/gram
- Yeast Count [2, 12]: <10 cfu/gram
- Yeast Count [2, 13]: 10 cfu/gram
- Yeast Count [2, 14]: 10 cfu/gram
- Yeast Count [2, 15]: 10 cfu/gram
- Yeast Count [2, 16]: 10 cfu/gram
- Yeast Count [2, 17]: 10 cfu/gram
- Yeast Count [2, 18]: 10 cfu/gram
- Yeast Count [2, 19]: 10 cfu/gram
- Yeast Count [2, 20]: 20 cfu/gram
- Yeast Count [2, 21]: 10 cfu/gram
- Yeast Count [2, 22]: 10 cfu/gram

Structure (SMILES): [Ca+2].[OH-].[OH-] [calcium hydroxide]
- preservation time with total microbial counts <10 cfu/g ([1]; dose 3.3% w/w): ≧6 weeks
- preservation time with total microbial counts <100 cfu/g ([1]; dose 3.3% w/w): ≧6 weeks
- preservation time with total microbial counts <1000 cfu/g ([1]; dose 3.3% w/w): ≧6 weeks
- preservation time with total microbial counts <10 cfu/g ([1]; dose 6.6% w/w): ≧6 weeks
- preservation time with total microbial counts <100 cfu/g ([1]; dose 6.6% w/w): ≧6 weeks
- preservation time with total microbial counts <1000 cfu/g ([1]; dose 6.6% w/w): ≧6 weeks
